Experimental data as given in publication PMC11645656, “MRGPRX4 mediates phospho-drug associated pruritus in a humanized mouse model” (Science translational medicine, 2024).
Several values for one entry are separate records, joined by “and”; a condition that tells them apart may be missing. Identical values can stand only once.

Assays:
NP2-WT mice = assay: Itch behavioral study (scratching bouts after subcutaneous nape injection) in littermate control NP2-WT mice; type: in vivo; settings: 30 min after injection of 50 μl 10 mM into the nape, each cell one mouse
From the text: Fig. 2. Phosphate monoester prodrugs induce itch in NP2-MRGPRX4+ mice through activating NP2 primary sensory neurons. (A) Mating strategy to generate NP2-X4+ mice. (B) In situ hybridization showing MRGPRX4 transcripts (magenta) in NP2-X4+ DRG as indicated by arrowheads (left) but not in littermate control NP2-WT (right). NP2 subpopulation accounts for 5% of total DRG neurons. DAPI, blue. Scale bar, 50 μm. […] . Data are expressed as mean ± SEM. *p< 0.05, **p< 0.01 and ***p< 0.001 by two-tailed unpaired Student’s t-test. ns = no statistical significance observed. (D and E) Traces of average (top, depicted as mean ± 95% confidence interval) and individual (bottom, reflected by the heatmap) calcium activity, measured by fluorescence intensity normalized to the baseline intensity (FT/F0) over time of NP2-X4+ (D) and NP2-WT (E) DRG neurons labelled with GCaMP6s (n = 110–150 neurons pooled from 3–7 independent culture vessels from 2–4 mice in each condition). 10 μM phospho-drugs and 1 mM CQ were added as indicated by the arrowheads. Neurons with FT/F0 > 1.5 after compound application were considered a positive responder. NP2-X4+: NP2-MRGPRX4+; DRG, dorsal root ganglia; CQ: chloroquine.
. All the animals used were heterozygous unless otherwise specified. NP2-X4+ and NP2-WT littermates were generated by crossing Mrgpra3-Cre to Rosa26-lsl-MRGPRX4 as detailed previously ([15]). NP2-X4+ mice were further crossed to homozygous Rosa26-lsl-GCaMP6s to obtain NP2-WT/GCaMP6s and NP2-X4+/GCaMP6s animals. A detailed mating strategy is illustrated in fig. S5. Pirt-Cre-GCaMP6s animals were acquired by crossing Pirt-Cre to homozygous Rosa26-lsl-GCaMP6s. Pirt-Cre animals were generated through homologous recombination as indicated previously ([37]). Rosa26-lsl-GCaMP6s mouse line was provided by Dr. Dwight Bergles’ lab at the Johns Hopkins School of Medicine.

MRGPRX4 (S83) = biological target: T1, MRGPRX4 (S83) (Homo sapiens, UniProt Q96LA9, L83S); assay: EC50 determination, intracellular calcium mobilization in MRGPRX4 stably expressed HEK293 cells (FLIPR Calcium 5, Flexstation-3); type: cell-based; settings: for Fig. 1D dose-response, calcium response at Concentration (M): individual replicate values
T1 construct: expressed in transfected cells
T1 sequence (Q96LA9 whole entry L83S): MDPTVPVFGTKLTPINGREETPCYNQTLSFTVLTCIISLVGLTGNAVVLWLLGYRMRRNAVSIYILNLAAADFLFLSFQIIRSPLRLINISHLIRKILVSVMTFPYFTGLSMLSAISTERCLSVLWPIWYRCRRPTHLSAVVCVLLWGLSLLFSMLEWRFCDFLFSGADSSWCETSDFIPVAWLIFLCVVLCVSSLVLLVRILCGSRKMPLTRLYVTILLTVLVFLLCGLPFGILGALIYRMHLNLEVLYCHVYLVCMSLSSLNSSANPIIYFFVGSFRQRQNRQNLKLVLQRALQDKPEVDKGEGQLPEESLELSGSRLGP
Procedure, shortened: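 HEK293 cells stably expressing receptor (parental HEK293 alongside) loaded with Calcium 5 dye in HBSS/20 mM HEPES, pH 7.4, 1 h at 37 °C, then compounds added. Response = peak minus pre-drug baseline, triplicates averaged; EC50 from 4PL fit.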

[1] = ref ClinicalTrials.gov Identifier: NCT00327392; cited from earlier work
[2] = tested on: NP2-X4+ mice (MRGPRX4 in Mrgpra3+ NP2 sensory neurons); assay: Itch behavioral study (scratching bouts after subcutaneous nape injection) in NP2-X4+ mice; type: in vivo, mouse
HTLA cells = assay: PRESTO-Tango β-arrestin recruitment assay, parental HTLA cells without MRGPRX4 (control, fig. S1); type: cell-based
From the text: Supplement NIHMS2038790-supplement-table.xlsx, sheet "fig. S1" | column: Concentration (M)

## CC(C)c1cccc(C(C)C)c1OCOP(=O)(O)O [Fospropofol]
NP2-WT mice
  Scratching bouts of individual animals: 2 and 38 and 3 and 10 and 15 and 17 and 76 and 40 and 18 and 43
MRGPRX4 (S83)
  EC50: 3.78 nM
MRGPRX4 (S83); 390.6 pM
  Fig. 1D dose-response, calcium response at Concentration (M): 1.887 and 7.675 and 17.3467 and 28.1293 and 25.4823 and 35.7983 and -3.6673 and 11.7957 and 11.3767
MRGPRX4 (S83); 781.2 pM
  Fig. 1D dose-response, calcium response at Concentration (M): 26.5827 and 9.949 and 22.6817 and 47.5243 and 43.9493 and 46.7693 and 30.8217 and 49.6317 and 45.8127
MRGPRX4 (S83); 1.5625e-9 M
  Fig. 1D dose-response, calcium response at Concentration (M): 74.3117 and 80.9857 and 81.1437 and 128.989 and 99.4103 and 141.332 and 62.3957 and 66.3277 and 70.4507
MRGPRX4 (S83); 3.125e-9 M
  Fig. 1D dose-response, calcium response at Concentration (M): 97.9827 and 97.6007 and 113.013 and 161.554 and 132.577 and 128.455 and 112.923 and 102.472 and 92.5087
MRGPRX4 (S83); 6.25e-9 M
  Fig. 1D dose-response, calcium response at Concentration (M): 129.465 and 134.099 and 141.914 and 173.201 and 168.912 and 206.791 and 144.704 and 134.885 and 117.377
MRGPRX4 (S83); 1.25e-8 M
  Fig. 1D dose-response, calcium response at Concentration (M): 164.422 and 179.515 and 157.084 and 234.098 and 206.128 and 222.155 and 172.571 and 101.371 and 130.276
MRGPRX4 (S83); 2.5e-8 M
  Fig. 1D dose-response, calcium response at Concentration (M): 193.287 and 213.245 and 222.211 and 313.329 and 290.374 and 297.501 and 184.525 and 188.459 and 188.843
MRGPRX4 (S83); 5e-8 M
  Fig. 1D dose-response, calcium response at Concentration (M): 209.793 and 233.98 and 204.052 and 317.065 and 340.21 and 331.701 and 193.877 and 181.409 and 188.341
MRGPRX4 (S83); 1e-7 M
  Fig. 1D dose-response, calcium response at Concentration (M): 231.301 and 222.41 and 222.053 and 368.09 and 352.14 and 353.772 and 173.973 and 182.603 and 208.392
MRGPRX4 (S83); 2e-7 M
  Fig. 1D dose-response, calcium response at Concentration (M): 241.094 and 221.904 and 183.593 and 346.939 and 358.59 and 369.748 and 151.356 and 187.22 and 148.627
MRGPRX4 (S83); MRGPRX4-expressing HEK293 cells
  MRGPRX4 agonist activity / calcium signaling: potent agonist of MRGPRX4
MRGPRX4 (S83); dose-response curve fitting, table S1
  Hill coefficient: 0.800
[1]
  Patients who reported paresthesia: 53.6%
  Patients who reported pruritus: 26.0%
[2]; 50 μl 10 mM nape injection, 30 min
  Scratching / itch behavior, NP2-X4+ mice vs WT littermates: significantly increased scratching behavior
[2]; NP2-X4+, 30 min after injection of 50 μl 10 mM into the nape, each cell one mouse
  Scratching bouts of individual animals: 79 (2×) and 60 and 28 and 56 and 5 and 40 and 132 and 49 and 4 and 42 and 59 and 43 and 52
HTLA cells; concentration 1.95e-8 M
  PRESTO-Tango response (fig. S1), single replicate: 0.00694 and 0.004644 and 0.006153 and 0.00965 and 0.002832 and 0.003328 and 0.008458 and 0.007173 and 0.001142
HTLA cells; concentration 3.91e-8 M
  PRESTO-Tango response (fig. S1), single replicate: 0.00458 and 0.005779 and 0.004441 and 0.006153 and 0.01503 and 0.00701 and 0.000445 and 0.01011 and 0.01094
HTLA cells; concentration 7.81e-8 M
  PRESTO-Tango response (fig. S1), single replicate: 0.003343 and 0.006009 and 0.009902 and 0.005737 and 0.003469 and 0.004602 and 0.006927 and 0.00283 and 0.006775
HTLA cells; concentration 1.56e-7 M
  PRESTO-Tango response (fig. S1), single replicate: 0.003508 and 0.005703 and 0.009009 and 0.008984 and 0.006514 and 0.007694 and 0.009731 and 0.002935 and 0.00804
HTLA cells; concentration 3.13e-7 M
  PRESTO-Tango response (fig. S1), single replicate: 0.002922 and 0.004925 and 0.007537 and 0.0115 and 0.004508 and 0.006726 and 0.004052 and 0.005477 and 0.00953
HTLA cells; concentration 6.25e-7 M
  PRESTO-Tango response (fig. S1), single replicate: 0.004976 and 0.01037 and 0.009311 and 0.01735 and 0.01013 and 0.008402 and 0.01193 and 0.01132 and 0.007015
HTLA cells; concentration 1.25e-6 M
  PRESTO-Tango response (fig. S1), single replicate: 0.005116 and 0.008433 and 0.01261 and 0.0248 and 0.006302 and 0.01317 and 0.01357 and 0.000979 and 0.02066
HTLA cells; concentration 2.5e-6 M
  PRESTO-Tango response (fig. S1), single replicate: 0.004708 and 0.01187 and 0.01433 and 0.0357 and 0.005924 and 0.01747 and 0.01767 and 0.01738 and 0.009944
HTLA cells; concentration 5e-6 M
  PRESTO-Tango response (fig. S1), single replicate: 0.006149 and 0.02356 and 0.0209 and 0.04204 and 0.009157 and 0.0186 and 0.01895 and 0.003902 and 0.03736
HTLA cells; concentration 1e-5 M
  PRESTO-Tango response (fig. S1), single replicate: 0.007859 and 0.01771 and 0.01368 and 0.04592 and 0.005971 and 0.02299 and 0.000906 and 0.03405 and 0.02211
HTLA cells; concentration 2e-5 M
  PRESTO-Tango response (fig. S1), single replicate: 0.005575 and 0.02041 and 0.01412 and 0.04838 and 0.01541 and 0.027 and 0.00299 and 0.03805 and 0.0244
